From ChEMBL document CHEMBL1201862, “PubChem BioAssay data set” (2004)
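Compound exposure: 48 hours, 5 concentrations, 96-well plates. Here, GI50 denotes the concentration required for 50% inhibition of growth.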 Active and inactive are the calls of the source. Cut-off read from the data, not from the text of the source: active = GI50 up to about 1.1 µM and inactive = higher.

Tests used:
Assay in all cases: growth of human tumour cells (NCI), 48 h
[1] = tested on: A498
[2] = tested on: IGROV-1
[3] = tested on: EKVX
[4] = tested on: UO-31
[5] = tested on: SNB-78
[6] = tested on: NCI-H226
[7] = tested on: CAKI-1
[8] = tested on: M19-MEL
[9] = tested on: CCRF-CEM
[10] = tested on: LOX IMVI
[11] = tested on: HL-60
[12] = tested on: SK-OV-3
[13] = tested on: SK-MEL-5
[14] = tested on: 786-0
[15] = tested on: KM-20L2
[16] = tested on: SK-MEL-28
[17] = tested on: Malme-3M
[18] = tested on: DLD-1
[19] = tested on: OVCAR-3
[20] = tested on: TK-10
[21] = tested on: SF-539
[22] = tested on: SNB-75
[23] = tested on: SN12C
[24] = tested on: COLO 205
[25] = tested on: SF-295
[26] = tested on: SNB-19
[27] = tested on: XF498
[28] = tested on: HCT-15
[29] = tested on: SF-268
[30] = tested on: M14
[31] = tested on: LXFL 529
[32] = tested on: UACC-257
[33] = tested on: HCC 2998
[34] = tested on: OVCAR-4
[35] = tested on: OVCAR-5
[36] = tested on: HOP-18
[37] = tested on: NCI-H522
[38] = tested on: NCI-H460
[39] = tested on: U-251
[40] = tested on: HOP-62
[41] = tested on: HT-29
[42] = tested on: ACHN
[43] = tested on: MOLT-4
[44] = tested on: HOP-92
[45] = tested on: KM12
[46] = tested on: RPMI-8226
[47] = tested on: UACC-62
[48] = tested on: DMS-273
[49] = tested on: SR
[50] = tested on: SK-MEL-2
[51] = tested on: OVCAR-8
[52] = tested on: NCI-H23
[53] = tested on: K562
[54] = tested on: RXF 393
[55] = tested on: SW-620
[56] = tested on: DMS-114
[57] = tested on: HCT-116
[58] = tested on: A549

**Q.** With `Cc1nc(-c2nc(C)c(C(=O)NN(C)C)s2)sc1C(=O)NN(C)C` as the compound, how does the GI50 [1] read?
**A.** Its GI50 is > 100 µM (inactive).

**Q.** And the GI50 [2]?
**A.** Its GI50 is > 100 µM (inactive).

**Q.** And the GI50 [3]?
**A.** The GI50 was > 100 µM (inactive).

**Q.** What about the GI50 [4] of the same compound?
**A.** The GI50 was > 100 µM (inactive).

**Q.** What about the GI50 [5] of the same compound?
**A.** Its GI50 is > 100 µM (inactive).

**Q.** What about the GI50 [6] of the same compound?
**A.** The GI50 was > 100 µM (inactive).

**Q.** What about the GI50 [7] of the same compound?
**A.** The GI50 was > 100 µM (inactive).

**Q.** And the GI50 [8]?
**A.** Its GI50 is > 100 µM (inactive).

**Q.** And the GI50 [9]?
**A.** The GI50 was 31.2 µM (inactive).

**Q.** And the GI50 [10]?
**A.** The GI50 was 23.6 µM (inactive).

**Q.** And the GI50 [11]?
**A.** Its GI50 is 43 µM (inactive).

**Q.** What about the GI50 [12] of the same compound?
**A.** The GI50 was > 100 µM (inactive).

**Q.** What about the GI50 [13] of the same compound?
**A.** Its GI50 is > 100 µM (inactive).

**Q.** What about the GI50 [14] of the same compound?
**A.** The GI50 was 30.7 µM (inactive).

**Q.** What about the GI50 [15] of the same compound?
**A.** Its GI50 is > 100 µM (inactive).

**Q.** And the GI50 [16]?
**A.** Its GI50 is > 100 µM (inactive).

**Q.** What about the GI50 [17] of the same compound?
**A.** The GI50 was > 100 µM (inactive).

**Q.** What about the GI50 [18] of the same compound?
**A.** The GI50 was 33.9 µM (inactive).

**Q.** And the GI50 [19]?
**A.** Its GI50 is > 100 µM (inactive).

**Q.** What about the GI50 [20] of the same compound?
**A.** The GI50 was > 100 µM (inactive).

**Q.** And the GI50 [21]?
**A.** Its GI50 is > 100 µM (inactive).

**Q.** And the GI50 [22]?
**A.** The GI50 was 60.3 µM (inactive).

**Q.** What about the GI50 [23] of the same compound?
**A.** Its GI50 is > 100 µM (inactive).

**Q.** And the GI50 [24]?
**A.** Its GI50 is 21.7 µM (inactive).

**Q.** What about the GI50 [25] of the same compound?
**A.** The GI50 was > 100 µM (inactive).

**Q.** And the GI50 [26]?
**A.** Its GI50 is > 100 µM (inactive).

**Q.** And the GI50 [27]?
**A.** The GI50 was > 100 µM (inactive).

**Q.** And the GI50 [28]?
**A.** Its GI50 is 67.9 µM.

**Q.** And the GI50 [29]?
**A.** Its GI50 is > 100 µM (inactive).

**Q.** What about the GI50 [30] of the same compound?
**A.** Its GI50 is > 100 µM (inactive).

**Q.** And the GI50 [31]?
**A.** The GI50 was > 100 µM (inactive).

**Q.** What about the GI50 [32] of the same compound?
**A.** The GI50 was > 100 µM (inactive).

**Q.** What about the GI50 [33] of the same compound?
**A.** The GI50 was > 100 µM (inactive).

**Q.** And the GI50 [34]?
**A.** Its GI50 is 53 µM (inactive).

**Q.** What about the GI50 [35] of the same compound?
**A.** Its GI50 is > 100 µM (inactive).

**Q.** What about the GI50 [36] of the same compound?
**A.** Its GI50 is > 100 µM (inactive).

**Q.** And the GI50 [37]?
**A.** The GI50 was 34.6 µM (inactive).

**Q.** And the GI50 [38]?
**A.** Its GI50 is > 100 µM (inactive).

**Q.** What about the GI50 [39] of the same compound?
**A.** Its GI50 is > 100 µM (inactive).

**Q.** And the GI50 [40]?
**A.** Its GI50 is > 100 µM (inactive).

**Q.** What about the GI50 [41] of the same compound?
**A.** Its GI50 is > 100 µM (inactive).

**Q.** And the GI50 [42]?
**A.** Its GI50 is > 100 µM (inactive).

**Q.** What about the GI50 [43] of the same compound?
**A.** Its GI50 is 44.1 µM (inactive).

**Q.** And the GI50 [44]?
**A.** The GI50 was > 100 µM (inactive).

**Q.** And the GI50 [45]?
**A.** Its GI50 is > 100 µM (inactive).

**Q.** What about the GI50 [46] of the same compound?
**A.** The GI50 was 28.8 µM (inactive).

**Q.** What about the GI50 [47] of the same compound?
**A.** Its GI50 is > 100 µM (inactive).

**Q.** And the GI50 [48]?
**A.** The GI50 was 16.2 µM (inactive).

**Q.** And the GI50 [49]?
**A.** The GI50 was 19.7 µM (inactive).

**Q.** And the GI50 [50]?
**A.** The GI50 was > 100 µM (inactive).

**Q.** What about the GI50 [51] of the same compound?
**A.** Its GI50 is > 100 µM (inactive).

**Q.** What about the GI50 [52] of the same compound?
**A.** The GI50 was > 100 µM (inactive).

**Q.** What about the GI50 [53] of the same compound?
**A.** Its GI50 is 32.6 µM (inactive).

**Q.** What does the source list for `O=C(O)CCc1coc2ccc(O)cc12`?
**A.** GI50 [1]: > 100 µM (inactive); GI50 [2]: > 100 µM (inactive); GI50 [3]: > 100 µM (inactive); GI50 [5]: > 100 µM (inactive); GI50 [7]: > 100 µM (inactive); GI50 [8]: > 100 µM (inactive); GI50 [9]: > 100 µM (inactive); GI50 [54]: > 100 µM (inactive); GI50 [10]: > 100 µM (inactive); GI50 [11]: > 100 µM (inactive); GI50 [12]: > 100 µM (inactive); GI50 [55]: > 100 µM (inactive); GI50 [13]: > 100 µM (inactive); GI50 [14]: > 100 µM (inactive); GI50 [15]: > 100 µM (inactive); GI50 [16]: > 100 µM (inactive); GI50 [18]: > 100 µM (inactive); GI50 [19]: > 100 µM (inactive); GI50 [20]: > 100 µM (inactive); GI50 [21]: > 100 µM (inactive); GI50 [22]: > 100 µM (inactive); GI50 [23]: > 100 µM (inactive); GI50 [24]: > 100 µM (inactive); GI50 [25]: > 100 µM (inactive); GI50 [26]: > 100 µM (inactive); GI50 [27]: > 100 µM (inactive); GI50 [28]: > 100 µM; GI50 [30]: > 100 µM (inactive); GI50 [31]: > 100 µM (inactive); GI50 [32]: > 100 µM (inactive); GI50 [33]: > 100 µM (inactive); GI50 [34]: > 100 µM (inactive); GI50 [36]: > 100 µM (inactive); GI50 [38]: > 100 µM (inactive); GI50 [39]: > 100 µM (inactive); GI50 [40]: > 100 µM (inactive); GI50 [41]: > 100 µM (inactive); GI50 [42]: > 100 µM (inactive); GI50 [43]: > 100 µM (inactive); GI50 [44]: 75.7 µM (inactive); GI50 [56]: > 100 µM (inactive); GI50 [46]: > 100 µM (inactive); GI50 [47]: > 100 µM (inactive); GI50 [57]: > 100 µM (inactive); GI50 [48]: > 100 µM (inactive); GI50 [58]: > 100 µM (inactive); GI50 [51]: > 100 µM (inactive); GI50 [52]: > 100 µM (inactive); GI50 [53]: > 100 µM (inactive)
